Results on four compounds are retold here after article PMC3961306, “Comparison of the Cancer Gene Targeting and Biochemical Selectivities of All Targeted Kinase Inhibitors Approved for Clinical Use” (PLoS ONE, 2014).

Common to all, as to experiment: Kinase profiling in a biochemical assay panel (mobility shift assays and ELISA), %-inhibition at 1 μM; selectivity entropy
For assay [1], the target named is panel of more than 300 wild-type and mutant kinases (313 kinase panel) (Homo sapiens, UniProt P09769). To be noted: kinase FGR; compound at 1 μM.
In assay [2] the target is panel of more than 300 wild-type and mutant kinases (313 kinase panel) (Homo sapiens, UniProt P05771). The following applies: kinase PKCβ1; 1 μM.
Assay [3] addresses panel of more than 300 wild-type and mutant kinases (313 kinase panel) (Homo sapiens, UniProt P16234). To be noted: kinase PDGFRα; 1 μM.
The target in assay [4] is T1, panel of more than 300 wild-type and mutant kinases (313 kinase panel) (Homo sapiens, UniProt Q8TD19).
T1 sequence (Q8TD19 1-979): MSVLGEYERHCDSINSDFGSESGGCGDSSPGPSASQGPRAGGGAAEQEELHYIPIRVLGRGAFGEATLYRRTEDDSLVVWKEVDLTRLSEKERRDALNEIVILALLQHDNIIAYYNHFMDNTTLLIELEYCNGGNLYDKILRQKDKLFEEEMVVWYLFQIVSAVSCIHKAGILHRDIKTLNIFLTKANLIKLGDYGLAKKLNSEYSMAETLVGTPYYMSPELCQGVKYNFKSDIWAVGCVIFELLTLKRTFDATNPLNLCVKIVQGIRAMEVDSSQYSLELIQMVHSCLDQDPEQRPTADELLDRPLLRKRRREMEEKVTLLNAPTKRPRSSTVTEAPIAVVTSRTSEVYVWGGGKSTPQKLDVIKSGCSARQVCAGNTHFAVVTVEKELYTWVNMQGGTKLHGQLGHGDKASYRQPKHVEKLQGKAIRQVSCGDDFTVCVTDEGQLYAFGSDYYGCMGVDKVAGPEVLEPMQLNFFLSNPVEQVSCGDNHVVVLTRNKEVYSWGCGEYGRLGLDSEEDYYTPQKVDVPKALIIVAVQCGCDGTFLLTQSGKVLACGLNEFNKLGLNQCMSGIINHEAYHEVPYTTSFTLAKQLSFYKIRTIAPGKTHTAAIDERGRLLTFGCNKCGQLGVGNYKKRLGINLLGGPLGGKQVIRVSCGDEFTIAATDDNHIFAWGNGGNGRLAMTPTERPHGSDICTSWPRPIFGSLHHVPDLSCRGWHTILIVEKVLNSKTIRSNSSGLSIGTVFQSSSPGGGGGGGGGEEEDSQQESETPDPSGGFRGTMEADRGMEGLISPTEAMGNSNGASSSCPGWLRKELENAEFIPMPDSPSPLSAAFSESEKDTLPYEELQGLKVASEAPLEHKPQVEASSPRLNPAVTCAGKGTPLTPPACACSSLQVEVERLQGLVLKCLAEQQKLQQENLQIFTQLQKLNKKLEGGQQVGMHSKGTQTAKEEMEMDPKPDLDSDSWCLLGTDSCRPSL
The following applies: kinase NEK9; 1 μM.

Assay [5] concerns the target T2, panel of more than 300 wild-type and mutant kinases (313 kinase panel) (Homo sapiens, UniProt O14757).
T2 sequence (O14757 1-476): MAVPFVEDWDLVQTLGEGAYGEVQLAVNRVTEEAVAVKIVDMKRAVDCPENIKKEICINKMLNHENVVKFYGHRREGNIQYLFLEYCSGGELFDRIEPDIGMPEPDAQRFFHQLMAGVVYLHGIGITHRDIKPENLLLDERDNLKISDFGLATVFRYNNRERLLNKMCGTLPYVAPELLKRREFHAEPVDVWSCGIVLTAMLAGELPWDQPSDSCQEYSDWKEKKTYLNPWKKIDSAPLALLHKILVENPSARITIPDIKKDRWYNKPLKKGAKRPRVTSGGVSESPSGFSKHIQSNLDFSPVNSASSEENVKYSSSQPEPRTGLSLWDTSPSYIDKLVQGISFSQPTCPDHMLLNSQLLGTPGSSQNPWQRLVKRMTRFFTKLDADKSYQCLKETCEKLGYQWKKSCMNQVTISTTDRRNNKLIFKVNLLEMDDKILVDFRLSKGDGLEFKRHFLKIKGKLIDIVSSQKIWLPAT
The following applies: kinase CHK1; 1 μM compound.

The target in assay [6] is T3, panel of more than 300 wild-type and mutant kinases (313 kinase panel) (Homo sapiens, UniProt Q05513).
T3 sequence (Q05513 1-592): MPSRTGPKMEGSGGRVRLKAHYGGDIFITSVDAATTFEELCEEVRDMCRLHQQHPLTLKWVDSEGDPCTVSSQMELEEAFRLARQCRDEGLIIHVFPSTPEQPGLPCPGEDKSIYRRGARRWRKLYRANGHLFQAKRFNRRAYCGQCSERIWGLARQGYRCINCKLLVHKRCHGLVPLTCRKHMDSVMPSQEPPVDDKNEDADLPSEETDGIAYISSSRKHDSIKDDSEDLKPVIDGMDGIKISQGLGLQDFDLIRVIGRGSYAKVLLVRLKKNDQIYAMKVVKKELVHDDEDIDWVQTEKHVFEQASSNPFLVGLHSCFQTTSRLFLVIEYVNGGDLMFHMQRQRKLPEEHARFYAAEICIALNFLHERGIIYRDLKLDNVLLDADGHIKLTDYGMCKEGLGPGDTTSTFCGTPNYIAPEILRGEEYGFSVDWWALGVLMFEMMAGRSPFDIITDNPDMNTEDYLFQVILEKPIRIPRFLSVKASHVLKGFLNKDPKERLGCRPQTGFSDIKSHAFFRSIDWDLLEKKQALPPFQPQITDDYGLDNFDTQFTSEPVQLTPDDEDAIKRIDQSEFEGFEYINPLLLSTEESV
To be noted: kinase PKCζ; 1 μM.

The target of assay [7] is panel of more than 300 wild-type and mutant kinases (313 kinase panel) (Homo sapiens, UniProt P06213). To be noted: kinase INSR; compound at 1 μM.
panel of more than 300 wild-type and mutant kinases (313 kinase panel) (Homo sapiens, UniProt P06213), sequence (P06213 28-1382, stated change not applied): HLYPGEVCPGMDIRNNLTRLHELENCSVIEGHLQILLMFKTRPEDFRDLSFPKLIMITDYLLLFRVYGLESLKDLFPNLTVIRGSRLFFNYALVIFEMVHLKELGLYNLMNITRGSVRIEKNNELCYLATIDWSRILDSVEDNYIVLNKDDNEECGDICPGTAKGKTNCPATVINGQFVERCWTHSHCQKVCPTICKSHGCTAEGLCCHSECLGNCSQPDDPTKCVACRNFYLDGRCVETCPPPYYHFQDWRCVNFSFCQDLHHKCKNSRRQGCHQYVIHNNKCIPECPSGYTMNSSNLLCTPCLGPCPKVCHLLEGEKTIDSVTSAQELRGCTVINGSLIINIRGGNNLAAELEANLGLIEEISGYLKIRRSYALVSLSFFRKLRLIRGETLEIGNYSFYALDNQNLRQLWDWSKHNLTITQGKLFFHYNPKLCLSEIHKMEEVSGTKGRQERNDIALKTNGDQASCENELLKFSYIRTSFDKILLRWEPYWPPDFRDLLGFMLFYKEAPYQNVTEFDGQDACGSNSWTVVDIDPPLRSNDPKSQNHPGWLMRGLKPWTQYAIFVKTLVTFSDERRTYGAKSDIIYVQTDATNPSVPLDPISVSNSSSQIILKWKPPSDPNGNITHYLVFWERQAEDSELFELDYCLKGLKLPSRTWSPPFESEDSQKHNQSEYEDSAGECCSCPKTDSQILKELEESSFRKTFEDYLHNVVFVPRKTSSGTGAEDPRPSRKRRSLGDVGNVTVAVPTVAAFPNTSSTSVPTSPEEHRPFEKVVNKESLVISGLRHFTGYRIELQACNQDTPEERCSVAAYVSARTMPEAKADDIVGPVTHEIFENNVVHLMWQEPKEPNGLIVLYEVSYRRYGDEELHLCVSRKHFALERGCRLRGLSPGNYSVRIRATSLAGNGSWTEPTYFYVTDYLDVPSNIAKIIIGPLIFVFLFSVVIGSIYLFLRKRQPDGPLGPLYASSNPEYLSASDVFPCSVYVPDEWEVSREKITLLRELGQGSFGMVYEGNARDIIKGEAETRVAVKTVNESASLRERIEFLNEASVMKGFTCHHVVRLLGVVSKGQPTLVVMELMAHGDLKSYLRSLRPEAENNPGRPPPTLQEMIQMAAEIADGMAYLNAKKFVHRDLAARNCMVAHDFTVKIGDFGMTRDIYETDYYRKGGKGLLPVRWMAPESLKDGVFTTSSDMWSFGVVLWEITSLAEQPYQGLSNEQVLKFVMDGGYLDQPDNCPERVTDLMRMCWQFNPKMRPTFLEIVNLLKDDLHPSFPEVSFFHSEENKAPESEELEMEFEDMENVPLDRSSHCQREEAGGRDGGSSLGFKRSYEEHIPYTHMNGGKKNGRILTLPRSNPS

panel of more than 300 wild-type and mutant kinases (313 kinase panel) (Homo sapiens, UniProt P16234), sequence (P16234 24-1089, change not shown): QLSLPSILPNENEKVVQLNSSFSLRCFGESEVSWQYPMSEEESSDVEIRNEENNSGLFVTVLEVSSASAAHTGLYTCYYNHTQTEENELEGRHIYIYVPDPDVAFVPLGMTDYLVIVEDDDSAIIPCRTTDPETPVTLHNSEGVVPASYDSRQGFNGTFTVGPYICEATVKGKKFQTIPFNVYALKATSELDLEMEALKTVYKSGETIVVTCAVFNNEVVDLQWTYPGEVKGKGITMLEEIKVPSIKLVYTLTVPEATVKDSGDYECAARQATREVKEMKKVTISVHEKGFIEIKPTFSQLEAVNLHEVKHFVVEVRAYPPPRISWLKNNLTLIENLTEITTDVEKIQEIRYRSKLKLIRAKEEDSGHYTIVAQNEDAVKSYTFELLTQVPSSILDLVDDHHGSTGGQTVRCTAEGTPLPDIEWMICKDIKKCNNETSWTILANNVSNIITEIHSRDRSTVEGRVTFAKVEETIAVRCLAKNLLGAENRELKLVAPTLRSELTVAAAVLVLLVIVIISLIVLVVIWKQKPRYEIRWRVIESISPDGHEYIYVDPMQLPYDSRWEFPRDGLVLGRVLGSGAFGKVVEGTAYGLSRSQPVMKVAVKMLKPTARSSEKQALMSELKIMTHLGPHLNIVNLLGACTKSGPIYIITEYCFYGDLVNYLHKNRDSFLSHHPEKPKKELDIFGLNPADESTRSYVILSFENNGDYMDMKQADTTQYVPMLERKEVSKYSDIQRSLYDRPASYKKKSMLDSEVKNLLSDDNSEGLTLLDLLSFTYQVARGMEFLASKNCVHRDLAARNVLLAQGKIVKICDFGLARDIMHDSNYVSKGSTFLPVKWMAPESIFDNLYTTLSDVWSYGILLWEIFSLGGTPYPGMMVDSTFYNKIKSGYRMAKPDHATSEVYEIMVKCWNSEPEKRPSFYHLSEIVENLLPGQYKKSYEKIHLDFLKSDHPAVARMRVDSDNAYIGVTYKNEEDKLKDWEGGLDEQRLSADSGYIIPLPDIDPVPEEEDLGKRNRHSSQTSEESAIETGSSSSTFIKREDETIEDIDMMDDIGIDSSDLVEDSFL

With `CO[C@H]1C[C@@H]2CC[C@@H](C)[C@@](O)(O2)C(=O)C(=O)N2CCCC[C@H]2C(=O)O[C@H]([C@H](C)C[C@@H]2CC[C@@H](OC(=O)C(C)(CO)CO)[C@H](OC)C2)CC(=O)[C@H](C)/C=C(\C)[C@@H](O)[C@@H](OC)C(=O)[C@H](C)C[C@H](C)/C=C/C=C/C=C/1C` [temsirolimus], the “%-inhibition of FGR” value in assay [1] is -3%. In addition, the “%-inhibition of PKCβ1” value in assay [2] was -2%. For the same compound, in assay [3], the “%-inhibition of PDGFRα” value turned out to be 3.45%. Besides, the “%-inhibition of NEK9” value in assay [4] is given as -8%. Also, the “%-inhibition, CHK1” value in assay [5] is given as 4.42%. In assay [6], the “%-inhibition of PKCζ” value was 5%. Besides, in assay [7], the “%-inhibition of INSR” value is recorded as -4%.
With `CC(=O)Nc1cccc(-n2c(=O)n(C3CC3)c(=O)c3c(Nc4ccc(I)cc4F)n(C)c(=O)c(C)c32)c1` [trametinib], the “%-inhibition of FGR” value in assay [1] is on record as -9%. Moreover, in assay [2], the “%-inhibition of PKCβ1” value was -3.47%. Besides, the “%-inhibition of PDGFRα” value in assay [3] worked out at 4.53%. Moreover, the “%-inhibition of NEK9” value in assay [4] is recorded as -3%. In assay [5], the “%-inhibition, CHK1” value was -0.719%. For the same compound, the “%-inhibition of PKCζ” value in assay [6] is 4.31%. Further, the “%-inhibition of INSR” value in assay [7] was -30%.
Consider `COc1cc2c(Nc3ccc(Br)cc3F)ncnc2cc1OCC1CCN(C)CC1` [vandetanib], for which the “%-inhibition of FGR” value in assay [1] was 86%. Further, in assay [2], the “%-inhibition of PKCβ1” value is on record as -6%. Also, the “%-inhibition of PDGFRα” value in assay [3] is on record as 101%. Further, the “%-inhibition of NEK9” value in assay [4] is given as -7%. Besides, in assay [5], the “%-inhibition, CHK1” value was 27%. Also, the “%-inhibition of PKCζ” value in assay [6] was 1.3%. Besides, the “%-inhibition of INSR” value in assay [7] is recorded as 3.63%.
As to `CCCS(=O)(=O)Nc1ccc(F)c(C(=O)c2c[nH]c3ncc(-c4ccc(Cl)cc4)cc23)c1F` [vemurafenib], the “%-inhibition of FGR” value in assay [1] is 93%. Further, the “%-inhibition of PKCβ1” value in assay [2] is on record as -3.81%. Further, the “%-inhibition of PDGFRα” value in assay [3] stood at 87%. Besides, in assay [4], the “%-inhibition of NEK9” value is listed as -2.2%. Besides, the “%-inhibition, CHK1” value in assay [5] turned out to be 4%. Besides, the “%-inhibition of PKCζ” value in assay [6] is listed as 13%. The “%-inhibition of INSR” value in assay [7] was determined as 17%.
